From ChEMBL document CHEMBL1150518, “Balanced angiotensin II receptor antagonists. III. The effects of substitution at the imidazole 5-position” (Bioorg Med Chem Lett, 1994) come the findings set out here.

Experiment [1] concerns the target T1, Type-2 angiotensin II receptor (Homo sapiens, UniProt P50052).
T1 sequence (P50052 whole entry): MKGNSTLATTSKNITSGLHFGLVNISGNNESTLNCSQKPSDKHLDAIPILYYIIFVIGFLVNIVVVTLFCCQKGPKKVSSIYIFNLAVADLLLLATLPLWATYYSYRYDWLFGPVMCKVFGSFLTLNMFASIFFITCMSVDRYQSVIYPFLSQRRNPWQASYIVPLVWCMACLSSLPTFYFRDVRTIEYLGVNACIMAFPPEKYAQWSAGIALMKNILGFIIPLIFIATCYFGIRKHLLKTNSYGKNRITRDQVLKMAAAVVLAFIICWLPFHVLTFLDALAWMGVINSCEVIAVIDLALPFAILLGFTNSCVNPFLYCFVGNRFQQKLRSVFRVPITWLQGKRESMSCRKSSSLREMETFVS
In words: Binding affinity for angiotensin II AT-2 receptor.

The subject of experiment [2] is Rattus norvegicus. Nature of the experiment: Antihypertensive activity of compound was measured in renal hypertensive rat after oral administration. Type of experiment: functional.
Experiment [3] concerns the target T2, Type-1 angiotensin II receptor (Homo sapiens, UniProt P30556).
T2 sequence (P30556 whole entry): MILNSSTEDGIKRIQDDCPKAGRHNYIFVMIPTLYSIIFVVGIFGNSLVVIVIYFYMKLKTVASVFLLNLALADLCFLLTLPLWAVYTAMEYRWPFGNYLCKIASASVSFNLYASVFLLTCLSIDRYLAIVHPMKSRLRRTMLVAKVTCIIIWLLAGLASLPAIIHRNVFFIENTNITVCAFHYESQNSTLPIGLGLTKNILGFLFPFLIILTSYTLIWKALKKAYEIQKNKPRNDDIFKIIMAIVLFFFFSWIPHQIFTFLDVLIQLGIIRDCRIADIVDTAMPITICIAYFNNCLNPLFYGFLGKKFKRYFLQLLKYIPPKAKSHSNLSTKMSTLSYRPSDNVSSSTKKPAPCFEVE
Nature of the experiment: Binding affinity for Angiotensin II receptor, type 1.

Experiment [4] has as its system Rattus norvegicus. Nature of the experiment: Antihypertensive activity of compound was measured in renal hypertensive rat after iv administration. The class given is functional.

A word on the IC50: it is the concentration needed to halve the response being measured. Lower therefore signals higher potency. In the case of `CCCc1nc(CC)c(C(=O)O)n1Cc1ccc(-c2ccccc2-c2nnn[nH]2)cc1`, the IC50 in experiment [1] was greater than 1000 nM; in experiment [3] it was 6 nM. Further, the results for the ED30 in the experiment on Rattus norvegicus [2] and in the experiment with Rattus norvegicus [4] were 0.03 mg/kg and 0.005 mg/kg, respectively.

`CCCc1nc(CC)c(C(=O)OCc2ccccc2-c2ccccn2)n1Cc1ccc(-c2ccccc2S(=O)(=O)NC(=O)OCCC(C)C)cc1F`: the results for the IC50 in experiment [1] and in experiment [3] were 3 nM and 0.3 nM, respectively.

As for `CCCc1nc(CC)c(C(=O)OCc2ccccc2Sc2ccccc2)n1Cc1ccc(-c2ccccc2S(=O)(=O)NC(=O)OCCC(C)C)cc1F`, the IC50 was 2 nM in experiment [1] and 1 nM in experiment [3].

For `CCCCCCCOC(=O)NS(=O)(=O)c1ccccc1-c1ccc(Cn2c(CCC)nc(CC)c2C(=O)OCc2ccccc2OC)c(F)c1`, the IC50 amounted to 10 nM in experiment [1] and 1 nM in experiment [3].

As for `CCCc1nc(CC)c(C(=O)OCCN2C(=O)c3ccccc3C2=O)n1Cc1ccc(-c2ccccc2S(=O)(=O)NC(=O)OCCC(C)C)cc1F`, the IC50 in experiment [1] is 7 nM; in experiment [3], 0.2 nM.

As to `CCCc1nc(CC)c(C(=O)OCc2ccccc2S(=O)(=O)c2ccccc2)n1Cc1ccc(-c2ccccc2S(=O)(=O)NC(=O)OCCC(C)C)cc1F`, the results for the IC50 in experiment [1] and in experiment [3] were 5 nM and 0.4 nM, respectively.

For `CCCc1nc(CC)c(C(=O)OCCCOc2ccccc2)n1Cc1ccc(-c2ccccc2S(=O)(=O)NC(=O)OCCC(C)C)cc1F`, the figures for the IC50 in experiment [1] and in experiment [3] were 2 nM and 0.1 nM, respectively.

For `CCCc1nc(CC)c(C(=O)OCCCC(=O)c2ccccc2)n1Cc1ccc(-c2ccccc2S(=O)(=O)NC(=O)OCCC(C)C)cc1F`, the IC50 came out at 5 nM in experiment [1] and 0.1 nM in experiment [3].

Take `CCCc1nc(CC)c(C(=O)OCCCOCc2ccccc2)n1Cc1ccc(-c2ccccc2S(=O)(=O)NC(=O)OCCC(C)C)cc1F`: the IC50 in experiment [1] was 2 nM; in experiment [3] it was 0.1 nM.

Take `CCCOC(=O)NS(=O)(=O)c1ccccc1-c1ccc(Cn2c(CCC)nc(CC)c2C(=O)OCc2ccccc2C(=O)c2ccccc2)c(F)c1`: the IC50 in experiment [1] was 1.6 nM; in experiment [3], 0.28 nM. For the same compound, the results for the ED30 in the experiment on Rattus norvegicus [2] and in the experiment with Rattus norvegicus [4] were 0.7 mg/kg and 0.08 mg/kg, respectively.

Take `CCCc1nc(CC)c(C(=O)OCc2ccccc2C(=O)Nc2ccccc2)n1Cc1ccc(-c2ccccc2S(=O)(=O)NC(=O)OCCC(C)C)cc1F`: the IC50 in experiment [1] was 1 nM; in experiment [3], 0.3 nM.

As for `CCCCOC(=O)NS(=O)(=O)c1ccccc1-c1ccc(Cn2c(CCC)nc(CC)c2C(=O)OCc2ccccc2C(=O)c2ccccc2)c(F)c1`, the figures for the 50% inhibitory concentration (IC50) in experiment [1] and in experiment [3] were 0.9 nM and 0.2 nM, respectively.

Turning to `CCCc1nc(CC)c(C(=O)OCCCSc2ccccc2)n1Cc1ccc(-c2ccccc2S(=O)(=O)NC(=O)OCCC(C)C)cc1F`, the concentration for half-maximal inhibition (IC50) was 2 nM in experiment [1] and 0.2 nM in experiment [3].

With `CCCc1nc(CC)c(C(=O)OCc2ccccc2[S+]([O-])c2ccccc2)n1Cc1ccc(-c2ccccc2S(=O)(=O)NC(=O)OCCC(C)C)cc1F` (stereo not drawn), the IC50 in experiment [1] is 2 nM; in experiment [3], 0.2 nM.

Turning to `CCCc1nc(CC)c(C(=O)OCc2ccccc2-c2cccs2)n1Cc1ccc(-c2ccccc2S(=O)(=O)NC(=O)OCCC(C)C)cc1F`, the results for the half-maximal inhibitory concentration (IC50) in experiment [1] and in experiment [3] were 3 nM and 0.8 nM, respectively.

With `CCCc1nc(CC)c(C(=O)OCc2ccccc2C(=O)c2ccccc2)n1Cc1ccc(-c2ccccc2S(=O)(=O)NC(=O)OCCC(C)C)cc1F`, the IC50 in experiment [1] was found to be 0.7 nM; in experiment [3] it was 0.5 nM. Further, the ED30 in the experiment with Rattus norvegicus [2] was found to be 0.9 mg/kg; in the experiment on Rattus norvegicus [4] it was 0.05 mg/kg.
